{"source": "ChEMBL document CHEMBL5154747", "about": "“Discovery of new carbonic anhydrase IX inhibitors as anticancer agents by toning the hydrophobic and hydrophilic rims of the active site to encounter the dual-tail approach” (Eur J Med Chem, 2022)"}
{"tested_on": "U-251", "assay": "Anticancer activity against human U-251 cells assessed as cell growth inhibition at 10 uM incubated for 48 hrs by SRB assay relative to control", "format": "functional", "details": "read-out: GI", "units": {"inhibition of growth at 10 µM": "%"}}
{"smiles": "CCCCc1nc(/C=N/Nc2nc(Nc3ccccc3)nc(Nc3ccc(S(N)(=O)=O)cc3)n2)c(Cl)[nH]1", "inhibition of growth at 10 µM": 101}
{"tested_on": "LOX IMVI", "assay": "Anticancer activity against human LOX IMVI cells assessed as cell growth inhibition at 10 uM incubated for 48 hrs by SRB assay relative to control", "format": "functional", "details": "read-out: GI", "units": {"inhibition of growth at 10 µM": "%"}}
{"smiles": "CCCCc1nc(/C=N/Nc2nc(Nc3ccccc3)nc(Nc3ccc(S(N)(=O)=O)cc3)n2)c(Cl)[nH]1", "inhibition of growth at 10 µM": 58}
{"tested_on": "Malme-3M", "assay": "Anticancer activity against human Malme-3M cells assessed as cell growth inhibition at 10 uM incubated for 48 hrs by SRB assay relative to control", "format": "functional", "details": "read-out: GI", "units": {"inhibition of growth at 10 µM": "%"}}
{"smiles": "CCCCc1nc(/C=N/Nc2nc(Nc3ccccc3)nc(Nc3ccc(S(N)(=O)=O)cc3)n2)c(Cl)[nH]1", "inhibition of growth at 10 µM": "< 10"}
{"tested_on": "SK-MEL-28", "assay": "Anticancer activity against human SK-MEL-28 cells assessed as cell growth inhibition at 10 uM incubated for 48 hrs by SRB assay relative to control", "format": "functional", "details": "read-out: GI", "units": {"inhibition of growth at 10 µM": "%"}}
{"smiles": "CCCCc1nc(/C=N/Nc2nc(Nc3ccccc3)nc(Nc3ccc(S(N)(=O)=O)cc3)n2)c(Cl)[nH]1", "inhibition of growth at 10 µM": 28}
{"tested_on": "SK-MEL-5", "assay": "Anticancer activity against human SK-MEL-5 cells assessed as cell growth inhibition at 10 uM incubated for 48 hrs by SRB assay relative to control", "format": "functional", "details": "read-out: GI", "units": {"inhibition of growth at 10 µM": "%"}}
{"smiles": "CCCCc1nc(/C=N/Nc2nc(Nc3ccccc3)nc(Nc3ccc(S(N)(=O)=O)cc3)n2)c(Cl)[nH]1", "inhibition of growth at 10 µM": 24}
{"tested_on": "UACC-62", "assay": "Anticancer activity against human UACC-62 cells assessed as cell growth inhibition at 10 uM incubated for 48 hrs by SRB assay relative to control", "format": "functional", "details": "read-out: GI", "units": {"inhibition of growth at 10 µM": "%"}}
{"smiles": "CCCCc1nc(/C=N/Nc2nc(Nc3ccccc3)nc(Nc3ccc(S(N)(=O)=O)cc3)n2)c(Cl)[nH]1", "inhibition of growth at 10 µM": 27}
{"tested_on": "IGROV-1", "assay": "Anticancer activity against human IGROV-1 cells assessed as cell growth inhibition at 10 uM incubated for 48 hrs by SRB assay relative to control", "format": "functional", "details": "read-out: GI", "units": {"inhibition of growth at 10 µM": "%"}}
{"smiles": "CCCCc1nc(/C=N/Nc2nc(Nc3ccccc3)nc(Nc3ccc(S(N)(=O)=O)cc3)n2)c(Cl)[nH]1", "inhibition of growth at 10 µM": "< 10"}
{"tested_on": "OVCAR-3", "assay": "Anticancer activity against human OVCAR-3 cells assessed as cell growth inhibition at 10 uM incubated for 48 hrs by SRB assay relative to control", "format": "functional", "details": "read-out: GI", "units": {"inhibition of growth at 10 µM": "%"}}
{"smiles": "CCCCc1nc(/C=N/Nc2nc(Nc3ccccc3)nc(Nc3ccc(S(N)(=O)=O)cc3)n2)c(Cl)[nH]1", "inhibition of growth at 10 µM": 53}
{"tested_on": "OVCAR-5", "assay": "Anticancer activity against human OVCAR-5 cells assessed as cell growth inhibition at 10 uM incubated for 48 hrs by SRB assay relative to control", "format": "functional", "details": "read-out: GI", "units": {"inhibition of growth at 10 µM": "%"}}
{"smiles": "CCCCc1nc(/C=N/Nc2nc(Nc3ccccc3)nc(Nc3ccc(S(N)(=O)=O)cc3)n2)c(Cl)[nH]1", "inhibition of growth at 10 µM": "< 10"}
{"tested_on": "OVCAR-8", "assay": "Anticancer activity against human OVCAR-8 cells assessed as cell growth inhibition at 10 uM incubated for 48 hrs by SRB assay relative to control", "format": "functional", "details": "read-out: GI", "units": {"inhibition of growth at 10 µM": "%"}}
{"smiles": "CCCCc1nc(/C=N/Nc2nc(Nc3ccccc3)nc(Nc3ccc(S(N)(=O)=O)cc3)n2)c(Cl)[nH]1", "inhibition of growth at 10 µM": "< 10"}
{"tested_on": "SK-OV-3", "assay": "Anticancer activity against human SK-OV-3 cells assessed as cell growth inhibition at 10 uM incubated for 48 hrs by SRB assay relative to control", "format": "functional", "details": "read-out: GI", "units": {"inhibition of growth at 10 µM": "%"}}
{"smiles": "CCCCc1nc(/C=N/Nc2nc(Nc3ccccc3)nc(Nc3ccc(S(N)(=O)=O)cc3)n2)c(Cl)[nH]1", "inhibition of growth at 10 µM": "< 10"}
{"tested_on": "786-0", "assay": "Anticancer activity against human 786-0 cells assessed as cell growth inhibition at 10 uM incubated for 48 hrs by SRB assay relative to control", "format": "functional", "details": "read-out: GI", "units": {"inhibition of growth at 10 µM": "%"}}
{"smiles": "CCCCc1nc(/C=N/Nc2nc(Nc3ccccc3)nc(Nc3ccc(S(N)(=O)=O)cc3)n2)c(Cl)[nH]1", "inhibition of growth at 10 µM": "< 10"}
{"tested_on": "ACHN", "assay": "Anticancer activity against human ACHN cells assessed as cell growth inhibition at 10 uM incubated for 48 hrs by SRB assay relative to control", "format": "functional", "details": "read-out: GI", "units": {"inhibition of growth at 10 µM": "%"}}
{"smiles": "CCCCc1nc(/C=N/Nc2nc(Nc3ccccc3)nc(Nc3ccc(S(N)(=O)=O)cc3)n2)c(Cl)[nH]1", "inhibition of growth at 10 µM": "< 10"}
{"tested_on": "CAKI-1", "assay": "Anticancer activity against human CAKI-1 cells assessed as cell growth inhibition at 10 uM incubated for 48 hrs by SRB assay relative to control", "format": "functional", "details": "read-out: GI", "units": {"inhibition of growth at 10 µM": "%"}}
{"smiles": "CCCCc1nc(/C=N/Nc2nc(Nc3ccccc3)nc(Nc3ccc(S(N)(=O)=O)cc3)n2)c(Cl)[nH]1", "inhibition of growth at 10 µM": "< 10"}
{"tested_on": "RXF 393", "assay": "Anticancer activity against human RXF 393 cells assessed as cell growth inhibition at 10 uM incubated for 48 hrs by SRB assay relative to control", "format": "functional", "details": "read-out: GI", "units": {"inhibition of growth at 10 µM": "%"}}
{"smiles": "CCCCc1nc(/C=N/Nc2nc(Nc3ccccc3)nc(Nc3ccc(S(N)(=O)=O)cc3)n2)c(Cl)[nH]1", "inhibition of growth at 10 µM": "< 10"}
{"tested_on": "SN12C", "assay": "Anticancer activity against human SN12C cells assessed as cell growth inhibition at 10 uM incubated for 48 hrs by SRB assay relative to control", "format": "functional", "details": "read-out: GI", "units": {"inhibition of growth at 10 µM": "%"}}
{"smiles": "CCCCc1nc(/C=N/Nc2nc(Nc3ccccc3)nc(Nc3ccc(S(N)(=O)=O)cc3)n2)c(Cl)[nH]1", "inhibition of growth at 10 µM": "< 10"}
{"tested_on": "UO-31", "assay": "Anticancer activity against human UO-31 cells assessed as cell growth inhibition at 10 uM incubated for 48 hrs by SRB assay relative to control", "format": "functional", "details": "read-out: GI", "units": {"inhibition of growth at 10 µM": "%"}}
{"smiles": "CCCCc1nc(/C=N/Nc2nc(Nc3ccccc3)nc(Nc3ccc(S(N)(=O)=O)cc3)n2)c(Cl)[nH]1", "inhibition of growth at 10 µM": 14}
{"tested_on": "Hs-578T", "assay": "Anticancer activity against human Hs-578T cells assessed as cell growth inhibition at 10 uM incubated for 48 hrs by SRB assay relative to control", "format": "functional", "details": "read-out: GI", "units": {"inhibition of growth at 10 µM": "%"}}
{"smiles": "CCCCc1nc(/C=N/Nc2nc(Nc3ccccc3)nc(Nc3ccc(S(N)(=O)=O)cc3)n2)c(Cl)[nH]1", "inhibition of growth at 10 µM": 22}
{"tested_on": "T47D", "assay": "Anticancer activity against human T47D cells assessed as cell growth inhibition at 10 uM incubated for 48 hrs by SRB assay relative to control", "format": "functional", "details": "read-out: GI", "units": {"inhibition of growth at 10 µM": "%"}}
{"smiles": "CCCCc1nc(/C=N/Nc2nc(Nc3ccccc3)nc(Nc3ccc(S(N)(=O)=O)cc3)n2)c(Cl)[nH]1", "inhibition of growth at 10 µM": 85}
{"tested_on": "MDA-MB-468", "assay": "Anticancer activity against human MDA-MB-468 cells assessed as cell growth inhibition at 10 uM incubated for 48 hrs by SRB assay relative to control", "format": "functional", "details": "read-out: GI", "units": {"inhibition of growth at 10 µM": "%"}}
{"smiles": "CCCCc1nc(/C=N/Nc2nc(Nc3ccccc3)nc(Nc3ccc(S(N)(=O)=O)cc3)n2)c(Cl)[nH]1", "inhibition of growth at 10 µM": 112}
